In PubChem BioAssay (NCI):
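Method: 48-hour compound exposure of cells in 96-well plates, five concentrations, linear interpolation of endpoints. GI50 = concentration required for 50% inhibition of growth. TGI denotes the concentration required for complete inhibition of growth.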

What was measured:
Test in all cases: NCI tumour cell line growth inhibition, 48 h
786-0 renal = tested on: 786-0 renal
A498 renal = tested on: A498 renal
A549 NSCLC = tested on: A549 NSCLC
ACHN renal = tested on: ACHN renal
BT-549 breast = tested on: BT-549 breast
CCRF-CEM leukemia = tested on: CCRF-CEM leukemia
DU-145 prostate = tested on: DU-145 prostate
EKVX NSCLC = tested on: EKVX NSCLC
HCC-2998 colon = tested on: HCC-2998 colon
HCT-116 colon = tested on: HCT-116 colon
HCT-15 colon = tested on: HCT-15 colon
HL-60(TB) leukemia = tested on: HL-60(TB) leukemia
HOP-92 NSCLC = tested on: HOP-92 NSCLC
HS 578T breast = tested on: HS 578T breast
IGROV1 ovarian = tested on: IGROV1 ovarian
K-562 leukemia = tested on: K-562 leukemia
KM12 colon = tested on: KM12 colon
LOX IMVI melanoma = tested on: LOX IMVI melanoma
M14 melanoma = tested on: M14 melanoma
MALME-3M melanoma = tested on: MALME-3M melanoma
MCF7 breast = tested on: MCF7 breast
MDA-MB-231 breast = tested on: MDA-MB-231 breast
MDA-MB-435 = tested on: MDA-MB-435
MOLT-4 leukemia = tested on: MOLT-4 leukemia
NCI-H23 lung = tested on: NCI-H23 lung
NCI-H460 lung = tested on: NCI-H460 lung
NCI-H522 lung = tested on: NCI-H522 lung
NCI/ADR-RES ovarian = tested on: NCI/ADR-RES ovarian
OVCAR-3 ovarian = tested on: OVCAR-3 ovarian
OVCAR-4 ovarian = tested on: OVCAR-4 ovarian
OVCAR-5 ovarian = tested on: OVCAR-5 ovarian
PC-3 prostate = tested on: PC-3 prostate
RPMI-8226 leukemia = tested on: RPMI-8226 leukemia
RXF 393 renal = tested on: RXF 393 renal
SF-268 CNS = tested on: SF-268 CNS
SF-295 CNS = tested on: SF-295 CNS
SF-539 CNS = tested on: SF-539 CNS
SK-MEL-2 melanoma = tested on: SK-MEL-2 melanoma
SK-MEL-28 melanoma = tested on: SK-MEL-28 melanoma
SK-MEL-5 melanoma = tested on: SK-MEL-5 melanoma
SK-OV-3 ovarian = tested on: SK-OV-3 ovarian
SN12C renal = tested on: SN12C renal
SNB-19 CNS = tested on: SNB-19 CNS
SNB-75 CNS = tested on: SNB-75 CNS
SR leukemia = tested on: SR leukemia
SW-620 colon = tested on: SW-620 colon
T-47D breast = tested on: T-47D breast
TK-10 renal = tested on: TK-10 renal
U251 CNS = tested on: U251 CNS
UACC-257 melanoma = tested on: UACC-257 melanoma
UACC-62 melanoma = tested on: UACC-62 melanoma
UO-31 renal = tested on: UO-31 renal
CAKI-1 renal = tested on: CAKI-1 renal
COLO 205 colon = tested on: COLO 205 colon
HOP-62 NSCLC = tested on: HOP-62 NSCLC
OVCAR-8 ovarian = tested on: OVCAR-8 ovarian

## COc1ccc2c(c1)c(-c1nc(-c3cn(C)c4ncccc34)cs1)cn2CCCN1CCCCC1
786-0 renal
  GI50: 1.59 µM
  TGI: 2.95 µM
A498 renal
  GI50: 2.4 µM
  TGI: 6.22 µM
A549 NSCLC
  GI50: 1.87 µM
  TGI: 3.46 µM
ACHN renal
  GI50: 1.69 µM
  TGI: 3.06 µM
BT-549 breast
  GI50: 4.91 µM
  TGI: 19.5 µM
CCRF-CEM leukemia
  GI50: 2050 nM
  TGI: 4.04 µM
DU-145 prostate
  GI50: 1.62 µM
  TGI: 2.98 µM
EKVX NSCLC
  GI50: 1.67 µM
  TGI: 3.17 µM
HCC-2998 colon
  GI50: 1560 nM
  TGI: 3.06 µM
HCT-116 colon
  GI50: 1.68 µM
  TGI: 3.05 µM
HCT-15 colon
  GI50: 1.53 µM
  TGI: 2.96 µM
HL-60(TB) leukemia
  GI50: 1810 nM
  TGI: 3.62 µM
HOP-92 NSCLC
  GI50: 1.67 µM
  TGI: 3.24 µM
HS 578T breast
  GI50: 2.24 µM
  TGI: 5.8 µM
IGROV1 ovarian
  GI50: 1.74 µM
  TGI: 3.46 µM
K-562 leukemia
  GI50: 1640 nM
  TGI: 3.4 µM
KM12 colon
  GI50: 1.78 µM
  TGI: 3.45 µM
LOX IMVI melanoma
  GI50: 1.65 µM
  TGI: 3.09 µM
M14 melanoma
  GI50: 1.65 µM
  TGI: 3.11 µM
MALME-3M melanoma
  GI50: 1640 nM
  TGI: 3.25 µM
MCF7 breast
  GI50: 1.7 µM
  TGI: 3.32 µM
MDA-MB-231 breast
  GI50: 1.78 µM
  TGI: 3.37 µM
MDA-MB-435
  GI50: 1.63 µM
  TGI: 3.03 µM
MOLT-4 leukemia
  GI50: 1710 nM
  TGI: 3.36 µM
NCI-H23 lung
  GI50: 1.81 µM
  TGI: 3.49 µM
NCI-H460 lung
  GI50: 1.95 µM
  TGI: 3.7 µM
NCI-H522 lung
  GI50: 1680 nM
  TGI: 3.37 µM
NCI/ADR-RES ovarian
  GI50: 1.76 µM
  TGI: 3.46 µM
OVCAR-3 ovarian
  GI50: 1.59 µM
  TGI: 3.02 µM
OVCAR-4 ovarian
  GI50: 1870 nM
  TGI: 4.64 µM
OVCAR-5 ovarian
  GI50: 1.64 µM
  TGI: 3.25 µM
PC-3 prostate
  GI50: 1.76 µM
  TGI: 3.27 µM
RPMI-8226 leukemia
  GI50: 2190 nM
  TGI: 4.64 µM
RXF 393 renal
  GI50: 1.68 µM
  TGI: 3.29 µM
SF-268 CNS
  GI50: 1.6 µM
  TGI: 3.21 µM
SF-295 CNS
  GI50: 1.71 µM
  TGI: 3.18 µM
SF-539 CNS
  GI50: 1750 nM
  TGI: 3.22 µM
SK-MEL-2 melanoma
  GI50: 2.07 µM
  TGI: 4.46 µM
SK-MEL-28 melanoma
  GI50: 1.76 µM
  TGI: 3.29 µM
SK-MEL-5 melanoma
  GI50: 1.79 µM
  TGI: 3.25 µM
SK-OV-3 ovarian
  GI50: 1.83 µM
  TGI: 3.53 µM
SN12C renal
  GI50: 1.71 µM
  TGI: 3.17 µM
SNB-19 CNS
  GI50: 1.9 µM
  TGI: 3.52 µM
SNB-75 CNS
  GI50: 1340 nM
  TGI: 2.72 µM
SR leukemia
  GI50: 1810 nM
  TGI: 3.77 µM
SW-620 colon
  GI50: 1.9 µM
  TGI: 3.63 µM
T-47D breast
  GI50: 1830 nM
  TGI: 4.28 µM
TK-10 renal
  GI50: 1.64 µM
  TGI: 3.1 µM
U251 CNS
  GI50: 1.81 µM
  TGI: 3.23 µM
UACC-257 melanoma
  GI50: 1.92 µM
  TGI: 3.66 µM
UACC-62 melanoma
  GI50: 1.76 µM
  TGI: 3.2 µM
UO-31 renal
  GI50: 1.51 µM
  TGI: 2.87 µM

## CSc1cc(N=Nc2nc3ccccc3s2)c2ccccc2c1O
786-0 renal
  GI50: 9.82 µM
  TGI: 18.4 µM
A498 renal
  GI50: 23.3 µM
  TGI: 45.5 µM
A549 NSCLC
  GI50: 12.1 µM
  TGI: 28.1 µM
ACHN renal
  GI50: 6.57 µM
  TGI: 13.1 µM
BT-549 breast
  GI50: 6.28 µM
  TGI: 14 µM
CAKI-1 renal
  GI50: 10.1 µM
  TGI: 20.3 µM
COLO 205 colon
  GI50: 14.2 µM
  TGI: > 50 µM
DU-145 prostate
  GI50: 9.16 µM
  TGI: 16.9 µM
EKVX NSCLC
  GI50: 7.2 µM
  TGI: 16.4 µM
HCT-116 colon
  GI50: 7.3 µM
  TGI: 29.3 µM
HCT-15 colon
  GI50: 8.31 µM
  TGI: 20.2 µM
HL-60(TB) leukemia
  GI50: 906 nM
  TGI: 25.5 µM
HOP-62 NSCLC
  GI50: 10.2 µM
  TGI: 20 µM
HOP-92 NSCLC
  GI50: 10.1 µM
  TGI: > 50 µM
HS 578T breast
  GI50: 20.9 µM
  TGI: > 50 µM
IGROV1 ovarian
  GI50: 7.64 µM
  TGI: 24.3 µM
K-562 leukemia
  GI50: 3600 nM
  TGI: 15.2 µM
KM12 colon
  GI50: 5.35 µM
  TGI: 28.7 µM
LOX IMVI melanoma
  GI50: 5.97 µM
  TGI: 12.7 µM
M14 melanoma
  GI50: 9.55 µM
  TGI: 21.6 µM
MCF7 breast
  GI50: 9.51 µM
  TGI: 28.8 µM
MDA-MB-231 breast
  GI50: 6.97 µM
  TGI: 14.6 µM
MDA-MB-435
  GI50: 11.1 µM
  TGI: 23.9 µM
NCI-H23 lung
  GI50: 10.5 µM
  TGI: 27.9 µM
NCI-H460 lung
  GI50: 7.83 µM
  TGI: 17.6 µM
NCI-H522 lung
  GI50: 1820 nM
  TGI: 13.1 µM
NCI/ADR-RES ovarian
  GI50: 7.17 µM
  TGI: 20.7 µM
OVCAR-3 ovarian
  GI50: 7.89 µM
  TGI: 19.3 µM
OVCAR-5 ovarian
  GI50: 16.1 µM
  TGI: 28.7 µM
OVCAR-8 ovarian
  GI50: 13.6 µM
  TGI: 39 µM
PC-3 prostate
  GI50: 13.4 µM
  TGI: > 50 µM
RPMI-8226 leukemia
  GI50: 2510 nM
  TGI: 25.6 µM
RXF 393 renal
  GI50: 5.99 µM
  TGI: 14.3 µM
SF-268 CNS
  GI50: 7.87 µM
  TGI: 17.4 µM
SF-295 CNS
  GI50: 11.5 µM
  TGI: 27.6 µM
SF-539 CNS
  GI50: 41.3 nM
  TGI: 3.87 µM
SK-MEL-2 melanoma
  GI50: 8.41 µM
  TGI: 22 µM
SK-MEL-28 melanoma
  GI50: 8.01 µM
  TGI: 18.6 µM
SK-MEL-5 melanoma
  GI50: 6.43 µM
  TGI: 13.3 µM
SK-OV-3 ovarian
  GI50: 10.7 µM
  TGI: 28.7 µM
SN12C renal
  GI50: 6.1 µM
  TGI: 12.9 µM
SNB-19 CNS
  GI50: 9.59 µM
  TGI: 25.7 µM
SNB-75 CNS
  GI50: 86.9 nM
  TGI: 11.9 µM
SR leukemia
  GI50: 973 nM
  TGI: 19.4 µM
SW-620 colon
  GI50: 13.3 µM
  TGI: 34.8 µM
T-47D breast
  GI50: 3640 nM
  TGI: > 50 µM
TK-10 renal
  GI50: 12.6 µM
  TGI: 28.7 µM
U251 CNS
  GI50: 9.03 µM
  TGI: 19.4 µM
UACC-257 melanoma
  GI50: 11.6 µM
  TGI: 21.7 µM
UACC-62 melanoma
  GI50: 5.41 µM
  TGI: 11.9 µM
UO-31 renal
  GI50: 7.61 µM
  TGI: 15.9 µM
